# Source: PubChem BioAssay AID328 (DTP/NCI, 2004)
# Several values for one entry are separate records, joined by “and”; a condition that tells them apart may be missing. Equal entries are not always repeated. Inconclusive results and toxic doses are left out.
# Tested on: BDF1 mice, P388 leukemia ip, median survival T/C
# Assay: NCI In Vivo Anticancer Drug Screen. Data for tumor model P388 Leukemia (intraperitoneal) in B6D2F1 (BDF1) mice
# Settings: endpoint: median survival time, higher = longer survival
# How it was run: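 Mice carrying the transplantable tumour receive compound or vehicle. Survival is followed in each arm, and the treated measure is divided by the vehicle measure.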
# [1] = dose: 100.0 mg/kg/injection, schedule: Q01DX009 (ip), vehicle: saline with Tween-80
# [2] = dose: 200.0 mg/kg/injection, schedule: Q01DX009 (ip), vehicle: saline with Tween-80
# [3] = dose: 100.0 mg/kg/injection, schedule: Q04DX003 (ip), vehicle: Klucel (hydroxypropylcellulose) (HPC)
# [4] = dose: 200.0 mg/kg/injection, schedule: Q04DX003 (ip), vehicle: Klucel (hydroxypropylcellulose) (HPC)
# [5] = dose: 400.0 mg/kg/injection, schedule: Q04DX003 (ip), vehicle: Klucel (hydroxypropylcellulose) (HPC)
# [6] = dose: 50.0 mg/kg/injection, schedule: Q01DX009 (ip), vehicle: saline
# [7] = dose: 100.0 mg/kg/injection, schedule: Q01DX009 (ip), vehicle: saline
# [8] = dose: 200.0 mg/kg/injection, schedule: Q01DX009 (ip), vehicle: saline
# [9] = dose: 25.0 mg/kg/injection, schedule: Q01DX009 (ip), vehicle: saline
# [10] = dose: 400.0 mg/kg/injection, schedule: Q04DX003 (ip), vehicle: saline with Tween-80
# [11] = dose: 100.0 mg/kg/injection, schedule: Q04DX003 (ip), vehicle: saline with Tween-80
# [12] = dose: 200.0 mg/kg/injection, schedule: Q04DX003 (ip), vehicle: saline with Tween-80
# [13] = dose: 0.62 mg/kg/injection, schedule: Q01DX009 (ip), vehicle: saline
# [14] = dose: 1.25 mg/kg/injection, schedule: Q01DX009 (ip), vehicle: saline
# [15] = dose: 5.0 mg/kg/injection, schedule: Q01DX009 (ip), vehicle: saline
# [16] = dose: 6.25 mg/kg/injection, schedule: Q01DX009 (ip), vehicle: saline with Tween-80
# [17] = dose: 12.5 mg/kg/injection, schedule: Q01DX009 (ip), vehicle: saline with Tween-80
# [18] = dose: 25.0 mg/kg/injection, schedule: Q01DX009 (ip), vehicle: saline with Tween-80
# [19] = dose: 50.0 mg/kg/injection, schedule: Q01DX009 (ip), vehicle: saline with Tween-80
# [20] = dose: 12.5 mg/kg/injection, schedule: Q01DX009 (ip), vehicle: saline
# [21] = dose: 50.0 mg/kg/injection, schedule: Q01DX009 (ip), vehicle: Klucel (hydroxypropylcellulose) (HPC)
# [22] = dose: 200.0 mg/kg/injection, schedule: Q01DX009 (ip), vehicle: Klucel (hydroxypropylcellulose) (HPC)
smiles,measurement,setting,value
O=C1C(Cl)=C(Cl)C(=O)C2CC=CCC12 (centres undefined),T/C,"dose: 3.13 mg/kg/injection, schedule: Q01DX001 (ip), vehicle: saline with Tween-80",95 % of control
same,T/C,"dose: 6.25 mg/kg/injection, schedule: Q01DX001 (ip), vehicle: saline with Tween-80",114 % of control
CC(=O)OCC(Br)C(Br)COC(C)=O (centres undefined),T/C,[1],109 % of control
same,T/C,[2],109 % of control
same,T/C,"dose: 400.0 mg/kg/injection, schedule: Q01DX009 (ip), vehicle: saline with Tween-80",109 % of control
CCCCCCCCCCC(=O)OCC#CC#CCOC(=O)CCCCCCCCCC,T/C,[3],104 % of control
same,T/C,[4],104 % of control
same,T/C,[5],100 % of control
O=C1C=CN(C2OC(CO)C(O)C2O)C(=O)C1 (centres undefined),T/C,"dose: 22.0 mg/kg/injection, schedule: Q01DX009 (ip), vehicle: saline",103 % of control
same,T/C,"dose: 33.0 mg/kg/injection, schedule: Q01DX009 (ip), vehicle: saline",107 % of control
same,T/C,[6],87 % of control and 101 % of control (2×)
same,T/C,"dose: 75.0 mg/kg/injection, schedule: Q01DX009 (ip), vehicle: saline",110 % of control
same,T/C,[7],87 % of control
same,T/C,[8],91 % of control
same,T/C,"dose: 400.0 mg/kg/injection, schedule: Q01DX009 (ip), vehicle: saline",100 % of control
CC(=O)OC1CCC2(C)C(CC(=O)C(C)C23CCC2(C=COC2)O3)C1(C)C (centres undefined),T/C,[9],113 % of control
same,T/C,[6],105 % of control
same,T/C,[1],109 % of control
same,T/C,[7],122 % of control
same,T/C,[2],102 % of control
CS(=O)(=O)OCC(=O)NCC(O)CNC(=O)COS(C)(=O)=O,T/C,"dose: 78.0 mg/kg/injection, schedule: Q04DX003 (ip), vehicle: saline with Tween-80",150 % of control
same,T/C,"dose: 177.0 mg/kg/injection, schedule: Q04DX003 (ip), vehicle: saline with Tween-80",161 % of control
same,T/C,"dose: 264.0 mg/kg/injection, schedule: Q04DX003 (ip), vehicle: saline with Tween-80",231 % of control and 157 % of control
same,T/C,[10],209 % of control
Cc1ccc(C)c(Cc2c(C=O)[nH]c(=S)[nH]c2=O)c1,T/C,[11],100 % of control
same,T/C,[12],109 % of control
same,T/C,[10],122 % of control
CC(=O)Oc1cc2cnc3c4cc(OC(C)=O)c(OC(C)=O)cc4ccc3c2cc1OC(C)=O,T/C,[13],106 % of control
same,T/C,[14],94 % of control
same,T/C,"dose: 2.5 mg/kg/injection, schedule: Q01DX009 (ip), vehicle: saline",97 % of control
same,T/C,[15],86 % of control
same,T/C,"dose: 20.0 mg/kg/injection, schedule: Q01DX009 (ip), vehicle: saline",109 % of control
same,T/C,"dose: 80.0 mg/kg/injection, schedule: Q01DX009 (ip), vehicle: saline",86 % of control
same,T/C,"dose: 120.0 mg/kg/injection, schedule: Q01DX009 (ip), vehicle: saline",90 % of control
same,T/C,"dose: 240.0 mg/kg/injection, schedule: Q01DX009 (ip), vehicle: saline",95 % of control
CCCC(N)C(=O)c1ccccc1 (centres undefined),T/C,[9],109 % of control
same,T/C,[6],109 % of control
CC(NC(=O)C(N)CSC(c1ccccc1)(c1ccccc1)c1ccccc1)C(=O)O (centres undefined),T/C,"dose: 88.0 mg/kg/injection, schedule: Q04DX003 (ip), vehicle: saline with Tween-80",113 % of control
same,T/C,"dose: 88.0 mg/kg/injection, schedule: Q04DX003 (ip), vehicle: saline",122 % of control
same,T/C,[12],195 % of control
COC1CCC(OC2C(C)C(O)(C(C)C(=O)O)OC(CC3CC(OC)C(C)C4(O3)OC(C)(C3CCC(C5CCC(C6OC(C)(O)C(C)C(OC)C6C)O5)O3)C(OC)C4C)C2(C)OC)OC1C (centres undefined),T/C,[13],94 % of control
same,T/C,[14],96 % of control
COc1ccc(NC(=S)N(CCC#N)C2CCCCC2)cc1,T/C,[16],86 % of control
same,T/C,[17],100 % of control
same,T/C,[18],104 % of control
same,T/C,[19],95 % of control
CC(C)Oc1ccc(Nc2ccccc2)cc1,T/C,"dose: 100.0 mg/kg/injection, schedule: Q01DX001 (ip), vehicle: Klucel (hydroxypropylcellulose) (HPC)",100 % of control
same,T/C,"dose: 200.0 mg/kg/injection, schedule: Q01DX001 (ip), vehicle: Klucel (hydroxypropylcellulose) (HPC)",100 % of control
same,T/C,"dose: 400.0 mg/kg/injection, schedule: Q01DX001 (ip), vehicle: Klucel (hydroxypropylcellulose) (HPC)",91 % of control
Nc1c(SSc2ccc3ccccc3c2N)ccc2ccccc12,T/C,"dose: 6.25 mg/kg/injection, schedule: Q01DX001 (ip), vehicle: Klucel (hydroxypropylcellulose) (HPC)",109 % of control
same,T/C,"dose: 12.5 mg/kg/injection, schedule: Q01DX001 (ip), vehicle: Klucel (hydroxypropylcellulose) (HPC)",109 % of control
same,T/C,"dose: 25.0 mg/kg/injection, schedule: Q01DX001 (ip), vehicle: Klucel (hydroxypropylcellulose) (HPC)",116 % of control
CCOC(=O)CCC(NC(=O)c1ccc(N(C)S(=O)(=O)c2ccc(C)cc2)c(F)c1)C(=O)OCC (centres undefined),T/C,"dose: 75.0 mg/kg/injection, schedule: Q04DX003 (ip), vehicle: saline",95 % of control
same,T/C,"dose: 150.0 mg/kg/injection, schedule: Q04DX003 (ip), vehicle: saline",108 % of control
same,T/C,"dose: 300.0 mg/kg/injection, schedule: Q04DX003 (ip), vehicle: saline",100 % of control
CCOC(=O)CCC(=O)CC(O)(C(F)(F)F)C(F)(F)Cl (centres undefined),T/C,[11],100 % of control
same,T/C,[12],90 % of control
same,T/C,[10],95 % of control
CC(C)NCC(O)COc1ccc2ncsc2c1 (centres undefined),T/C,[6],108 % of control
same,T/C,[7],110 % of control
same,T/C,[8],91 % of control
OCCN1CCN(CC/C=C2/c3ccccc3Sc3ccc(C(F)(F)F)cc32)CC1,T/C,[15],101 % of control
same,T/C,"dose: 10.0 mg/kg/injection, schedule: Q01DX009 (ip), vehicle: saline",101 % of control
same,T/C,"dose: 80.0 mg/kg/injection, schedule: Q04DX003 (ip), vehicle: saline",97 % of control
CC/C(=C\c1ccc(Cl)cc1)[N+](=O)[O-],T/C,[20],97 % of control
same,T/C,[9],99 % of control
same,T/C,"dose: 25.0 mg/kg/injection, schedule: Q04DX003 (ip), vehicle: saline",87 % of control
same,T/C,[6],99 % of control
same,T/C,"dose: 50.0 mg/kg/injection, schedule: Q04DX003 (ip), vehicle: saline",104 % of control
same,T/C,"dose: 100.0 mg/kg/injection, schedule: Q04DX003 (ip), vehicle: saline",104 % of control and 109 % of control
CC(CN1CC(=O)NC(=O)C1)N1CC(=O)NC(=O)C1.[Cl-].[Pt+4] (centres undefined),T/C,[20],100 % of control
same,T/C,[9],95 % of control and 118 % of control
same,T/C,[6],97 % of control
same,T/C,[7],91 % of control
same,T/C,[8],105 % of control
CC(C)(C)OC(=O)NNC(=O)c1ccc([N+](=O)[O-])cc1,T/C,[21],90 % of control
same,T/C,[22],95 % of control
O=C(/C=C/c1ccc(OCc2ccccc2)cc1)c1cccc(F)c1,T/C,[19],100 % of control
same,T/C,[1],100 % of control
same,T/C,[2],92 % of control
CN(N=O)c1ccc(N(C)N=O)cc1,T/C,[21],95 % of control
same,T/C,"dose: 100.0 mg/kg/injection, schedule: Q01DX009 (ip), vehicle: Klucel (hydroxypropylcellulose) (HPC)",95 % of control
same,T/C,[3],95 % of control
same,T/C,[22],90 % of control
same,T/C,[4],105 % of control
same,T/C,[5],95 % of control
CC1(c2ccco2)C(=O)NC(=O)N1C(=O)CCl (centres undefined),T/C,[19],100 % of control
same,T/C,[1],100 % of control
same,T/C,[11],96 % of control
same,T/C,[12],96 % of control
COc1cccc(/C=N/NC(=O)C2CCN(C(=S)NC3CC4C=CC3C4)CC2)c1O (centres undefined),T/C,"dose: 1.56 mg/kg/injection, schedule: Q01DX009 (ip), vehicle: saline with Tween-80",90 % of control
same,T/C,"dose: 3.12 mg/kg/injection, schedule: Q01DX009 (ip), vehicle: saline with Tween-80",89 % of control
same,T/C,[16],87 % of control and 92 % of control
same,T/C,[17],89 % of control
same,T/C,[18],92 % of control
same,T/C,[19],101 % of control
O=C1/C(=C\c2ccco2)SC(=S)N1c1ccccc1,T/C,"dose: 10.0 mg/kg/injection, schedule: Q01DX009 (ip), vehicle: saline with Tween-80",96 % of control
same,T/C,"dose: 20.0 mg/kg/injection, schedule: Q01DX009 (ip), vehicle: saline with Tween-80",89 % of control
same,T/C,"dose: 40.0 mg/kg/injection, schedule: Q01DX009 (ip), vehicle: saline with Tween-80",98 % of control
